Measured values published in the supplement of paper PMC10307832.

What was measured:
Test in all cases: relative viability (nuclei count vs DMSO), 5 days (fraction); higher = more cells survive
CUDC-101 + Pictilisib = compound: C#Cc1cccc(Nc2ncnc3cc(OC)c(OCCCCCCC(=O)NO)cc23)c1 [CUDC-101] + CS(=O)(=O)N1CCN(Cc2cc3nc(-c4cccc5[nH]ncc45)nc(N4CCOCC4)c3s2)CC1 [Pictilisib] (partner 1 µM)
How it was run: (§1)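 Nuclei were stained with Hoechst during a one-step fixation (final 0.05% Triton X-100, 1% formaldehyde, 1 ug/ml Hoechst) carried out 5 days after dosing, then counted on 4× images. The cells, lung cancer lines in 1536-well plates, had been dosed by pin tool the day after seeding with one drug alone or a fixed anchor-drug dose plus five library-drug doses (not always all listed) in √10 steps. Relative viability is the nuclei count in treated wells divided by that in vehicle wells, and each value is the median of duplicate plates.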

CUDC-101 + Vorinostat = compound: C#Cc1cccc(Nc2ncnc3cc(OC)c(OCCCCCCC(=O)NO)cc23)c1 [CUDC-101] + O=C(CCCCCCC(=O)Nc1ccccc1)NO [Vorinostat] (partner 1 µM)
How it was run: as §1

[1] = compound: C1=CC=C2C(=C1)N=C(S2)C(C#N)C3=NC(=NC=C3)NCCC4=CN=CC=C4 + Cc1nc(NC(=O)N2CCC[C@H]2C(N)=O)sc1-c1ccnc(C(C)(C)C(F)(F)F)c1 [Alpelisib] (partner 2 µM)
How it was run: as §1

Vandetanib + Alpelisib = compound: COc1cc2/c(=N/c3ccc(Br)cc3F)nc[nH]c2cc1OCC1CCN(C)CC1 [Vandetanib] + Cc1nc(NC(=O)N2CCC[C@H]2C(N)=O)sc1-c1ccnc(C(C)(C)C(F)(F)F)c1 [Alpelisib] (partner 2 µM)
How it was run: as §1

Row | Cell Line | relative viability (CUDC-101 + Pictilisib; first compound 0.01 µM) | relative viability (CUDC-101 + Pictilisib; first compound 0.03162 µM) | relative viability (CUDC-101 + Pictilisib; first compound 0.1 µM) | relative viability (CUDC-101 + Pictilisib; first compound 0.3162 µM) | relative viability (CUDC-101 + Pictilisib; first compound 1 µM) | relative viability (CUDC-101 + Vorinostat; first compound 0.01 µM) | relative viability (CUDC-101 + Vorinostat; first compound 0.03162 µM) | relative viability (CUDC-101 + Vorinostat; first compound 0.1 µM) | relative viability (CUDC-101 + Vorinostat; first compound 0.3162 µM) | relative viability (CUDC-101 + Vorinostat; first compound 1 µM) | relative viability ([1]; first compound 0.005 µM) | relative viability ([1]; first compound 0.01581 µM) | relative viability ([1]; first compound 0.05 µM) | relative viability ([1]; first compound 0.1581 µM) | relative viability ([1]; first compound 0.5 µM) | relative viability (Vandetanib + Alpelisib; first compound 0.02 µM) | relative viability (Vandetanib + Alpelisib; first compound 0.06325 µM) | relative viability (Vandetanib + Alpelisib; first compound 0.2 µM) | relative viability (Vandetanib + Alpelisib; first compound 0.6325 µM) | relative viability (Vandetanib + Alpelisib; first compound 2 µM)
1 | HCC-78 | 0.246 | 0.205 | 0.209 | 0.153 | 0.145 | 0.441 | 0.413 | 0.46 | 0.377 | 0.259 | 0.366 | 0.316 | 0.353 | 0.366 | 0.378 | 0.346 | 0.32 | 0.337 | 0.321 | 0.288
2 | EMC-BAC-2 | 0.531 | 0.61 | 0.606 | 0.557 | 0.351 | 0.506 | 0.449 | 0.507 | 0.309 | 0.191 | 0.566 | 0.768 | 0.686 | 0.76 | 0.67 | 0.737 | 0.742 | 0.472 | 0.712 | 0.717
3 | NCI-H2170 | 0.317 | 0.297 | 0.289 | 0.275 | 0.169 | 0.809 | 0.821 | 0.77 | 0.859 | 0.549 | – | 0.801 | 0.845 | 0.838 | 0.723 | 0.782 | 0.799 | 0.746 | 0.805 | 0.781
4 | NCI-H2228 | 0.246 | 0.485 | 0.494 | 0.36 | 0.252 | 0.611 | 0.575 | 0.585 | 0.783 | 0.526 | 0.513 | 0.715 | 0.754 | 0.818 | 0.524 | 0.75 | 0.587 | – | 0.712 | 0.624
5 | HCC-827 | 1.07 | 0.53 | 0.368 | 0.287 | 0.262 | 0.929 | 0.835 | 0.168 | 0.156 | 0.14 | 0.962 | 1.01 | 0.943 | 1.15 | 1.02 | 1.02 | 0.986 | 0.752 | 0.233 | 0.167
6 | LXF-289 | 0.758 | 0.806 | 0.806 | 0.728 | 0.51 | 0.755 | 0.757 | 0.71 | 0.594 | 0.447 | 0.979 | 1.15 | 1.04 | 1.12 | 0.998 | 1.05 | 1 | 1.02 | 1.03 | 1.04
7 | HOP-62 | 0.758 | 0.696 | 0.753 | 0.582 | 0.4 | 0.716 | 0.57 | 0.665 | 0.524 | 0.261 | 0.966 | 1.34 | 1.09 | 1.3 | 1.21 | 0.814 | 0.836 | 0.746 | 0.972 | 0.993
8 | LCLC-103H | 0.586 | 0.574 | 0.614 | 0.501 | 0.492 | 0.759 | 0.81 | 0.7 | 0.692 | 0.61 | 0.926 | 0.983 | 0.971 | 0.901 | 0.915 | 0.923 | 0.898 | 0.983 | 0.972 | 0.943
9 | LOU-NH91 | 0.578 | 0.523 | 0.564 | 0.473 | 0.433 | 1.04 | 0.842 | 0.833 | 0.703 | 0.43 | 0.707 | 0.752 | 0.62 | 0.723 | 0.698 | 0.753 | 0.619 | 0.539 | 0.551 | 0.481
10 | NCI-H1915 | 1 | 0.907 | 0.882 | 0.924 | 0.531 | 0.527 | 0.511 | 0.481 | 0.358 | 0.374 | 0.997 | 1.05 | 1.04 | 1.12 | 1.05 | 0.964 | 1.05 | 1.04 | 1.08 | 1.05
11 | NCI-H1395 | 0.59 | 0.682 | 0.564 | 0.652 | 0.581 | 0.81 | 0.753 | 0.797 | 0.661 | 0.489 | 1.14 | – | 0.939 | 1.04 | 1.21 | 1.03 | 1.28 | 1.22 | 1.04 | 0.998
12 | COR-L23 | 0.846 | 0.861 | 0.751 | 0.68 | 0.23 | 0.35 | 0.581 | 0.394 | 0.22 | 0.0997 | 0.748 | 0.756 | 0.841 | 0.877 | 0.742 | 0.701 | 0.528 | 0.114 | 0.773 | 0.902
13 | NCI-H1734 | 0.499 | 0.488 | 0.452 | 0.437 | 0.285 | 0.882 | 0.76 | 0.832 | 0.595 | 0.369 | 0.695 | 0.729 | 0.518 | 0.726 | 0.714 | 0.673 | 0.684 | 0.737 | 0.756 | 0.678
14 | NCI-H2405 | 0.462 | 0.419 | 0.642 | 0.624 | 0.336 | 1.1 | 1.04 | 0.968 | 0.953 | 0.568 | 0.75 | 0.784 | 0.734 | 0.731 | 0.839 | 0.813 | 0.405 | 0.733 | 0.958 | 0.677
15 | NCI-H2087 | 0.985 | 1.03 | 1.11 | 1.11 | 0.603 | 0.928 | 0.886 | 0.684 | 0.528 | 0.38 | 1.06 | 1.14 | 0.979 | 1.14 | 1.05 | 0.953 | 1.17 | 1.28 | 1.04 | 1.07
16 | NCI-H1793 | 0.302 | 0.43 | 0.248 | 0.375 | 0.273 | 0.858 | 0.774 | 0.558 | 0.675 | 0.331 | 0.692 | 0.521 | 0.55 | 0.763 | 0.739 | 0.65 | 0.635 | 0.623 | 0.756 | 0.512
